One block for each substance: values may come before it.
System: IgE antibodies from patients
Experiment: Wheat epitope mapping (2): overlapping 10-amino-acid peptide fragments shifted by one amino acid;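 as to Rank of partial sequence as epitope binding to IgE antibody: key = sequence deemed particularly important within the common 15-residue sequence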;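 as to epitope sequence binding to IgE antibody, rank (Key/Preferably/More preferably): key of grades: preferably = shorter partial sequence still acting as epitope; more preferably = sequence improving IgE binding; key = particularly important sequence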
Type: binding, human
Method in brief: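 Residual binding was banded as <30% none, 30–<50% poor, 50–<70% somewhat poor and ≥70% retained, relative to the parent overlapping sequence set to 100%. Values were chemiluminescent IgE signals from patient sera after subtracting secondary-antibody-only controls. The peptides were spot-synthesised 10-mers shifted by one amino acid.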

[1] = serum of patient P21 (WDEIA), sequence without X
[2] = serum of patient P8 (WDEIA), sequence without X
[3] = serum of patient P7 (WDEIA), sequence without X
[4] = serum of patient P56 (child, general immediate type allergy to wheat)
[5] = serum of patient G7 (adult, general immediate type allergy to wheat), sequence without X
[6] = serum of patient G1 (adult, general immediate type allergy to wheat), sequence without X
[7] = serum of patient P36 (WDEIA), sequence without X
[8] = serum of patient P18 (WDEIA), sequence without X
[9] = serum of patient P34 (WDEIA), sequence without X
[10] = serum of patient P50 (child, general immediate type allergy to wheat), sequence without X

Substance: 1586 (QQPFPQTQQP; REGION 1..10: note = epitope) [compound 1586]
Rank of partial sequence as epitope binding to IgE antibody [1]: More preferably

Substance: 1764 (KEVSSYLKKV; REGION 1..10: note = epitope) [compound 1764]
epitope sequence binding to IgE antibody, rank (Key/Preferably/More preferably) (serum of patient P30 (WDEIA)): Key

Substance: 2700 (YKGPTL; REGION 1..6: note = epitope) [compound 2700]
Epitope sequence binding to IgE antibody, rank of the sequence (serum of patient G9 (adult, general immediate type allergy to wheat), partial sequence): Key

Substance: 2663 (FEKEAA; REGION 1..6: note = epitope) [compound 2663]
Epitope sequence binding to IgE antibody, rank of the sequence (serum of patient P50 (child, general immediate type allergy to wheat), partial sequence): Preferably

Substance: 1374 (PWQQQPLP; REGION 1..8: note = epitope) [compound 1374]
Epitope sequence binding to IgE antibody, rank of the sequence [3]: Preferably

Substance: 2574 (QLVQQL; REGION 1..6: note = epitope) [compound 2574]
Epitope sequence binding to IgE antibody, rank of the sequence (serum of patient P28 (WDEIA), partial sequence): Preferably

Substance: 2638 (EAAE; REGION 1..4: note = epitope) [compound 2638]
Epitope sequence binding to IgE antibody, rank of the sequence (serum of patient P10 (WDEIA), partial sequence): Key

Substance: 1734 (KEAANFT; REGION 1..7: note = epitope) [compound 1734]
epitope sequence binding to IgE antibody, rank (Key/Preferably/More preferably) [4]: Preferably

Substance: 1493 (YLQPQQPIS; REGION 1..9: note = epitope) [compound 1493]
Rank of partial sequence as epitope binding to IgE antibody [7]: Key

Substance: 1556 (LVQQQ; REGION 1..5: note = epitope) [compound 1556]
Rank of partial sequence as epitope binding to IgE antibody (serum of patient P35 (WDEIA), sequence without X): Key

Substance: 1358 (VEDNRRALR; REGION 1..9: note = epitope) [compound 1358]
Epitope sequence binding to IgE antibody, rank of the sequence [7]: Preferably

Substance: 1941 (QQFPGQQQ; REGION 1..8: note = epitope) [compound 1941]
epitope sequence binding to IgE antibody, rank (Key/Preferably/More preferably) (serum of patient P21 (WDEIA)): More preferably

Substance: 2599 (QLVQQLCC; REGION 1..8: note = epitope) [compound 2599]
Epitope sequence binding to IgE antibody, rank of the sequence (serum of patient P53 (child, general immediate type allergy to wheat), partial sequence): Preferably

Substance: 1180 (QQFPP; REGION 1..5: note = epitope) [compound 1180]
Epitope sequence binding to IgE antibody, rank of the sequence (serum of patient P12 (WDEIA), sequence without X): Key

Substance: 1543 (QVPLVQQ; REGION 1..7: note = epitope) [compound 1543]
Rank of partial sequence as epitope binding to IgE antibody [1]: Preferably

Substance: 1427 (YLQPQQPISQ; REGION 1..10: note = epitope) [compound 1427]
Rank of partial sequence as epitope binding to IgE antibody (serum of patient P14 (WDEIA), sequence without X): More preferably

Substance: 2676 (YKGPTL; REGION 1..6: note = epitope) [compound 2676]
Epitope sequence binding to IgE antibody, rank of the sequence (serum of patient P8 (WDEIA), partial sequence): Key

Substance: 1846 (TVRTLQR; REGION 1..7: note = epitope) [compound 1846]
epitope sequence binding to IgE antibody, rank (Key/Preferably/More preferably) (serum of patient P12 (WDEIA)): Key

Substance: 1422 (YLQPQQ; REGION 1..6: note = epitope) [compound 1422]
Epitope sequence binding to IgE antibody, rank of the sequence (serum of patient P10 (WDEIA), sequence without X): Preferably

Substance: 2587 (QLVQQLCC; REGION 1..8: note = epitope) [compound 2587]
Epitope sequence binding to IgE antibody, rank of the sequence (serum of patient P32 (WDEIA), partial sequence): Preferably

Substance: 1617 (VPFVPISG; REGION 1..8: note = epitope) [compound 1617]
Rank of partial sequence as epitope binding to IgE antibody (serum of patient P20 (WDEIA), sequence without X): Preferably

Substance: 1706 (EAANFT; REGION 1..6: note = epitope) [compound 1706]
Rank of partial sequence as epitope binding to IgE antibody (serum of patient P29 (WDEIA), sequence without X): Key

Substance: 1547 (QVPLVQQQQ; REGION 1..9: note = epitope) [compound 1547]
Rank of partial sequence as epitope binding to IgE antibody [9]: More preferably

Substance: 1756 (VSSYLKK; REGION 1..7: note = epitope) [compound 1756]
epitope sequence binding to IgE antibody, rank (Key/Preferably/More preferably) (serum of patient P8 (WDEIA)): Key

Substance: 2358 (TEIV; REGION 1..4: note = epitope) [compound 2358]
Epitope sequence binding to IgE antibody, rank of the sequence (Key/Preferably/More preferably) [8]: Key

Substance: 1492 (YLQPQQPISQ; REGION 1..10: note = epitope) [compound 1492]
Rank of partial sequence as epitope binding to IgE antibody [7]: Preferably

Substance: 1840 (RTLQ; REGION 1..4: note = epitope) [compound 1840]
epitope sequence binding to IgE antibody, rank (Key/Preferably/More preferably) (serum of patient P5 (WDEIA)): Key

Substance: 2487 (KAWSGK; REGION 1..6: note = epitope) [compound 2487]
Epitope sequence binding to IgE antibody, rank of the sequence (Key/Preferably/More preferably) [5]: More preferably

Substance: 1558 (PLVQQQQF; REGION 1..8: note = epitope) [compound 1558]
Rank of partial sequence as epitope binding to IgE antibody [10]: Preferably

Substance: 1190 (QQFPPQQPYP; REGION 1..10: note = epitope) [compound 1190]
Epitope sequence binding to IgE antibody, rank of the sequence [1]: Key

Substance: 1867 (TVRTLQR; REGION 1..7: note = epitope) [compound 1867]
epitope sequence binding to IgE antibody, rank (Key/Preferably/More preferably) (serum of patient P28 (WDEIA)): Preferably

Substance: 1207 (FPPQQ; REGION 1..5: note = epitope) [compound 1207]
Epitope sequence binding to IgE antibody, rank of the sequence [9]: Key

Substance: 2270 (DKRVIERFEK; REGION 1..10: note = epitope) [compound 2270]
Epitope sequence binding to IgE antibody, rank of the sequence (Key/Preferably/More preferably) [3]: Key

Substance: 1918 (QVPLVQQQQ; REGION 1..9: note = epitope) [compound 1918]
epitope sequence binding to IgE antibody, rank (Key/Preferably/More preferably) (serum of patient P10 (WDEIA)): Preferably

Substance: 2256 (LRGIRN; REGION 1..6: note = epitope) [compound 2256]
Epitope sequence binding to IgE antibody, rank of the sequence (Key/Preferably/More preferably) (serum of patient P53 (child, general immediate type allergy to wheat), sequence without X): Key

Substance: 2262 (RNYRVAI; REGION 1..7: note = epitope) [compound 2262]
Epitope sequence binding to IgE antibody, rank of the sequence (Key/Preferably/More preferably) [6]: Key

The remaining lines, values ahead:

Epitope sequence binding to IgE antibody, rank of the sequence (Key/Preferably/More preferably) [2]: Key
Substance: 2223 (IRNYRVA; REGION 1..7: note = epitope) [compound 2223]

Rank of partial sequence as epitope binding to IgE antibody (serum of patient P52 (child, general immediate type allergy to wheat), sequence without X): Further preferably
Substance: 1594 (QPQQPFP; REGION 1..7: note = epitope) [compound 1594]

Epitope sequence binding to IgE antibody, rank of the sequence (Key/Preferably/More preferably) [2]: Key
Substance: 2275 (KRVIERFEK; REGION 1..9: note = epitope) [compound 2275]

epitope sequence binding to IgE antibody, rank (Key/Preferably/More preferably) (serum of patient P18 (WDEIA)): More preferably
Substance: 1856 (YTVRTLQRT; REGION 1..9: note = epitope) [compound 1856]

epitope sequence binding to IgE antibody, rank (Key/Preferably/More preferably) (serum of patient P34 (WDEIA)): Key
Substance: 1821 (SGKELEALPK; REGION 1..10: note = epitope) [compound 1821]

epitope sequence binding to IgE antibody, rank (Key/Preferably/More preferably) (serum of patient G8 (adult, general immediate type allergy to wheat)): Key
Substance: 1752 (ANFTSQVIIM; REGION 1..10: note = epitope) [compound 1752]

Epitope sequence binding to IgE antibody, rank of the sequence (serum of patient G8 (adult, general immediate type allergy to wheat), partial sequence): Key
Substance: 2699 (YKGPTL; REGION 1..6: note = epitope) [compound 2699]

epitope sequence binding to IgE antibody, rank (Key/Preferably/More preferably) [4]: Key
Substance: 1735 (EAANFT; REGION 1..6: note = epitope) [compound 1735]

Rank of partial sequence as epitope binding to IgE antibody [5]: Preferably
Substance: 1563 (QVPLVQQQQ; REGION 1..9: note = epitope) [compound 1563]

Epitope sequence binding to IgE antibody, rank of the sequence (serum of patient P25 (WDEIA), partial sequence): Key
Substance: 2719 (YKIGG; REGION 1..5: note = epitope) [compound 2719]

Epitope sequence binding to IgE antibody, rank of the sequence (Key/Preferably/More preferably) [6]: Key
Substance: 2300 (DKRVIERFEK; REGION 1..10: note = epitope) [compound 2300]

Epitope sequence binding to IgE antibody, rank of the sequence [2]: Key
Substance: 1417 (QQPISQQQAQ; REGION 1..10: note = epitope) [compound 1417]

Epitope sequence binding to IgE antibody, rank of the sequence (serum of patient P29 (WDEIA), partial sequence): Key
Substance: 2688 (YKGPTL; REGION 1..6: note = epitope) [compound 2688]

Rank of partial sequence as epitope binding to IgE antibody [8]: Preferably
Substance: 1441 (YLQPQQPISQ; REGION 1..10: note = epitope) [compound 1441]

Epitope sequence binding to IgE antibody, rank of the sequence (serum of patient P7 (WDEIA), partial sequence): Key
Substance: 2553 (QLVQ; REGION 1..4: note = epitope) [compound 2553]

Rank of partial sequence as epitope binding to IgE antibody (serum of patient P54 (child, general immediate type allergy to wheat), sequence without X): Key
Substance: 1658 (KVPFVPISG; REGION 1..9: note = epitope) [compound 1658]

Epitope sequence binding to IgE antibody, rank of the sequence (Key/Preferably/More preferably/Further preferably) [10]: More preferably
Substance: 2464 (WSGKTENEE; REGION 1..9: note = epitope) [compound 2464]

epitope sequence binding to IgE antibody, rank (Key/Preferably/More preferably) (serum of patient P24 (WDEIA)): Preferably
Substance: 1948 (QVPLVQQQ; REGION 1..8: note = epitope) [compound 1948]

epitope sequence binding to IgE antibody, rank (Key/Preferably/More preferably) (serum of patient P35 (WDEIA)): Key
Substance: 1768 (VSSYLKK; REGION 1..7: note = epitope) [compound 1768]

epitope sequence binding to IgE antibody, rank (Key/Preferably/More preferably) (serum of patient G7 (adult, general immediate type allergy to wheat)): Key
Substance: 1751 (SQVIIM; REGION 1..6: note = epitope) [compound 1751]

epitope sequence binding to IgE antibody, rank (Key/Preferably/More preferably) (serum of patient P15 (WDEIA)): Preferably
Substance: 1929 (QFPGQQQ; REGION 1..7: note = epitope) [compound 1929]
